Literature values as cited in publication PMC11923824, “Spider-derived peptide LCTx-F2 suppresses ASIC channels by occupying the acidic pocket” (The Journal of Biological Chemistry, 2025).

Columns and labels:
ASIC3 channel = settings: nonproton ligand
From the text: (§1) ASIC channels, particularly ASIC1a and ASIC3, are affected by certain cations like Ca^2+ and Zn^2+, which provides valuable insights for the development of novel drugs targeting ASICs. […] Depletion of insulin leads to an increase in ASIC1a channel expression in Chinese hamster ovary cells and neurons.

ASIC1a channel = system: ASIC1a channel
From the text: ASIC channels, particularly ASIC1a and ASIC3, are affected by certain cations like Ca^2+ and Zn^2+, which provides valuable insights for the development of novel drugs targeting ASICs. […] Depletion of insulin leads to an increase in ASIC1a channel expression in Chinese hamster ovary cells and neurons. […] Spider venom contains a variety of peptide toxins, some of which induce pain by targeting different ion channels ([29], [30], [31]), whereas others have analgesic properties and block the pain pathway ([32], [33], [34]). […] Derived from the spider Lycosa singoriensis, LCTx-F2 enhances ...

rASIC2a channel = system: rASIC2a channel
From the text: Venom serves as a crucial weapon for animals in hunting prey and defending against enemies. Spider venom contains a variety of peptide toxins, some of which induce pain by targeting different ion channels ([29], [30], [31]), whereas others have analgesic properties and block the pain pathway ([32], [33], [34]). […] Derived from the spider Lycosa singoriensis, LCTx-F2 enhances ...

ischemic stroke = system: ischemic stroke
From the text: as §1

human ASIC3 channel = system: human ASIC3 channel
From the text: (§2) ASICs play a crucial role in pain perception among mammals ([39], [40]). Some animal toxins that are involved in prey capture and defense mechanisms act on ASICs ([26], [41]). For instance, the venom from Micrurus tener tener causes intense and persistent pain by enhancing the activation of ASICs through the MitTx toxin ([27]). ASICs are also considered important targets for pain relief, and certain chemicals that block their activity have shown strong analgesic effects in tests with living organisms ([42], [43]).

rASIC3 channel = biological target: T1, rASIC3 channel (Rattus norvegicus, UniProt O35240)
T1 construct: expressed in transfected cells; host or cells: human embryonic kidney 293 cells
T1 sequence (O35240 1-533): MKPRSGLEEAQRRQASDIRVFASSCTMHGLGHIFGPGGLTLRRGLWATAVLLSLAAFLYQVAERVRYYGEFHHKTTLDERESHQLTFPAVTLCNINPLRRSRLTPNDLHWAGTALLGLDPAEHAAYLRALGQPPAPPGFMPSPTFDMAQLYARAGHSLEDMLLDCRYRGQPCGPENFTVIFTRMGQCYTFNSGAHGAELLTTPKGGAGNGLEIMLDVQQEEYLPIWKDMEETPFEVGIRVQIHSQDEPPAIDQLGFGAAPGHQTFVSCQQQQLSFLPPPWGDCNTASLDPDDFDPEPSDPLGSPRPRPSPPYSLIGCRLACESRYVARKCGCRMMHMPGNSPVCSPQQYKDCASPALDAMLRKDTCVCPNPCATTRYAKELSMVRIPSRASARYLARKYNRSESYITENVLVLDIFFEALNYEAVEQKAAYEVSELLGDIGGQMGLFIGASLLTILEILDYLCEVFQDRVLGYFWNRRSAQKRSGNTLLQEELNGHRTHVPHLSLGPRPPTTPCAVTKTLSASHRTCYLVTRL
From the text: as §2, with “Venom serves as a crucial weapon for animals in hunting prey and defending against enemies. Spider venom contains a variety of peptide toxins, some of which induce pain by targeting different ion channels ([29], [30], [31]), whereas others have analgesic properties and block the pain pathway ([32], [33], [34]). […] Derived from the spider Lycosa singoriensis, LCTx-F2 enhances ... || ASICs play” for “ASICs play”

[1] = system: ASICs in dorsal root ganglion neurons; settings: no reference given
From the text: as §1

hASIC1a channel = settings: interacts with helix α5 of the thumb domain
ASICs = settings: no reference given
From the text: as §1

humans = settings: no reference given
From the text: as §1

neuron = settings: no reference given
From the text: as §1

[2] = system: ASIC1a channel in Xenopus oocytes; settings: no reference given
From the text: as §1

Cc1nc(NC(=N)N)nc2ccccc12 [2-guanidine-4-methylquinazoline]
activation of ASIC3 (ASIC3 channel): activated

PcTx1
effect on ASIC1a (in words) (ASIC1a channel): selectively inhibit the ASIC1a channel | site of action on ASIC1a (ASIC1a channel): inserts into the acidic pocket of ASIC1a channels | effect on rASIC2a (in words) (rASIC2a channel): not the rASIC2a or rASIC3 channels | neuroprotection in ischemic stroke (ischemic stroke): exhibits neuroprotection

APETx2
inhibition of hASIC3 (in words) (human ASIC3 channel): inhibit both rASIC3 and hASIC3 channels | IC50 (human ASIC3 channel; read-out: IC50 against human ASIC3 channel): 175 nM | effect on rASIC3 (in words) (rASIC3 channel): inhibit both rASIC3 and hASIC3 channels

nerve growth factor: proinflammatory mediator
effect on ASIC expression [1]: increase the expression of ASICs

bradykinin: proinflammatory mediator (RPPGFSPFR; Bradykinin; UniProt P01042 381-389, looked up)
effect on ASIC expression [1]: increase the expression of ASICs

mambalgin-1: snake toxin mambalgin-1 (LKCYQHGKVVTCHRDMKFCYHNTGMPFRNLKLILQGCSSSCSETENNKCCSTDRCNK; UniProt P0DKR6 22-78, looked up)
effect on proton sensitivity of hASIC1a (hASIC1a channel): reduces the proton sensitivity

N=C(N)NC(=O)c1nc(Cl)c(N)nc1N [Amiloride]
effect on ASICs, amiloride (ASICs): can suppress most ASICs | analgesic effect in humans (humans): has shown analgesic effects in humans | protection against acidosis-induced neuron damage (neuron): provides protection against acidosis-induced neuron damage

B1: matriptase: protease cleaving ASIC1a (protein, UniProt Q9Y5Y6 1-855, looked up)
Suppressor of tumorigenicity …: MGSDRARKGGGGPKDFGAGLKYNSRHEKVNGLEEGVEFLPVNNVKKVEKHGPGRWVVLAAVLIGLLLVLLGIGFLVWHLQYRDVRVQKVFNGYMRITNENFVDAYENSNSTEFVSLASKVKDALKLLYSGVPFLGPYHKESAVTAFSEGSVIAYYWSEFSIPQHLVEEAERVMAEERVVMLPPRARSLKSFVVTSVVAFPTDSKTVQRTQDNSCSFGLHARGVELMRFTTPGFPDSPYPAHARCQWALRGDADSVLSLTFRSFDLASCDERGSDLVTVYNTLSPMEPHALVQLCGTYPPSYNLTFHSSQNVLLITLITNTERRHPGFEATFFQLPRMSSCGGRLRKAQGTFNSPYYPGHYPPNIDCTWNIEVPNNQHVKVRFKFFYLLEPGVPAGTCPKDYVEINGEKYCGERSQFVVTSNSNKITVRFHSDQSYTDTGFLAEYLSYDSSDPCPGQFTCRTGRCIRKELRCDGWADCTDHSDELNCSCDAGHQFTCKNKFCKPLFWVCDSVNDCGDNSDEQGCSCPAQTFRCSNGKCLSKSQQCNGKDDCGDGSDEASCPKVNVVTCTKHTYRCLNGLCLSKGNPECDGKEDCSDGSDEKDCDCGLRSFTRQARVVGGTDADEGEWPWQVSLHALGQGHICGASLISPNWLVSAAHCYIDDRGFRYSDPTQWTAFLGLHDQSQRSAPGVQERRLKRIISHPFFNDFTFDYDIALLELEKPAEYSSMVRPICLPDASHVFPAGKAIWVTGWGHTQYGGTGALILQKGEIRVINQTTCENLLPQQITPRMMCVGFLSGGVDSCQGDSGGPLSSVEADGRIFQAGVVSWGDGCAQRNKPGVYTRLPLFRDWIKENTGV
effect of cleavage on ASIC1a current [2]: reduces its current
